# Source: patent publication US11124516B2, “Pyrrolo[1,2-A]pyrimidinyl carboxamide compounds and their use in the treatment of medical disorders” (Bial—Biotech Investments, Inc., priority 2016, dated 2021)
# Test system: not listed separately
# Assay: Compound solubility in water
# Assay type: physicochemical
# Conditions: not given
SMILES,solubility,Compound Solubility in Water
Cc1cc(-c2cccc(C(N)=O)c2)nc2c(C(=O)NC(C3CC3)C(F)(F)F)ccn12 (stereo not drawn) [IV-7],0.4 µg/mL,
Cc1cc(C)n2c(F)cc(C(=O)N[C@@H](C)C3CC3)c2n1 [IV-17],21.6 µg/mL,
Cc1cc(C)n2ccc(C(=O)NC(C)(C)c3ccc4c(c3)OCCO4)c2n1 [IV-19],2.1 µg/mL,
Cc1cc(C)n2ccc(C(=O)N[C@@H](C)c3ccccc3F)c2n1 [IV-20],2.5 µg/mL,
Cc1cc(C)n2ccc(C(=O)N[C@@H](C)c3ccc(F)cc3)c2n1 [IV-21],3.3 µg/mL,
Cc1cc(C)n2ccc(C(=O)NC(C)(C)c3ccccc3Cl)c2n1 [IV-22],1.3 µg/mL,
Cc1cc(C)n2ccc(C(=O)NC(C)c3cccc4ccccc34)c2n1 (stereo not drawn) [IV-23],,0.2 µg/mL
COc1ccc([C@@H](C)NC(=O)c2ccn3c(C)cc(C)nc23)cc1 [IV-24],5.3 µg/mL,
Cc1cc(C)n2ccc(C(=O)N[C@H](C)c3ccc(Cl)cc3)c2n1 [IV-25],0.6 µg/mL,

# Further lines, results first:
solubility,Compound Solubility in Water,SMILES
16.9 µg/mL,,COCc1cc(C)n2ccc(C(=O)N[C@H]3CC[C@H](OCC(C)C)CC3)c2n1 [IV-4]
8.1 µg/mL,,CCc1cc(C)nc2c(C(=O)N[C@H]3CC[C@H](OC(C)(C)C)CC3)ccn12 [IV-5]
7.9 µg/mL,,CCc1cc(C)n2ccc(C(=O)N[C@H]3CC[C@H](OC(C)(C)C)CC3)c2n1 [IV-6]
0.9 µg/mL,,Cc1cc(C(F)F)n2ccc(C(=O)N[C@H]3CC[C@H](OC(C)(C)C)CC3)c2n1 [IV-8]
1.5 µg/mL,,Cc1cc(C(F)F)n2ccc(C(=O)N[C@H]3CC[C@H](OCC(C)C)CC3)c2n1 [IV-9]
0.3 µg/mL,,Cc1cc(C(F)F)n2ccc(C(=O)N[C@H]3CC[C@H](OCC(C)(C)C)CC3)c2n1 [IV-10]
9 µg/mL,,CCCO[C@H]1CC[C@H](NC(=O)c2ccn3c(C(F)F)cc(C)nc23)CC1 [IV-11]
18.5 µg/mL,,CCCO[C@H]1CC[C@H](NC(=O)c2ccn3c(C)cc(C(F)F)nc23)CC1 [IV-12]
5 µg/mL,,Cc1cc(C(F)F)nc2c(C(=O)N[C@H]3CC[C@H](OCC(C)C)CC3)ccn12 [IV-13]
0.8 µg/mL,,Cc1cc(C(F)F)nc2c(C(=O)N[C@H]3CC[C@H](OCC(C)(C)C)CC3)ccn12 [IV-14]
8.4 µg/mL,,CCCCO[C@H]1CC[C@H](NC(=O)c2ccn3c(C)cc(N4CCOCC4)nc23)CC1 [IV-15]
3.1 µg/mL,,Cc1cc(C)n2ccc(C(=O)NC(C3CC3)C(F)(F)F)c2n1 (stereo not drawn) [IV-16]

# Target: T1, glucocerebrosidase (Gcase) (Homo sapiens, UniProt P04062)
# T1 sequence (P04062 40-536): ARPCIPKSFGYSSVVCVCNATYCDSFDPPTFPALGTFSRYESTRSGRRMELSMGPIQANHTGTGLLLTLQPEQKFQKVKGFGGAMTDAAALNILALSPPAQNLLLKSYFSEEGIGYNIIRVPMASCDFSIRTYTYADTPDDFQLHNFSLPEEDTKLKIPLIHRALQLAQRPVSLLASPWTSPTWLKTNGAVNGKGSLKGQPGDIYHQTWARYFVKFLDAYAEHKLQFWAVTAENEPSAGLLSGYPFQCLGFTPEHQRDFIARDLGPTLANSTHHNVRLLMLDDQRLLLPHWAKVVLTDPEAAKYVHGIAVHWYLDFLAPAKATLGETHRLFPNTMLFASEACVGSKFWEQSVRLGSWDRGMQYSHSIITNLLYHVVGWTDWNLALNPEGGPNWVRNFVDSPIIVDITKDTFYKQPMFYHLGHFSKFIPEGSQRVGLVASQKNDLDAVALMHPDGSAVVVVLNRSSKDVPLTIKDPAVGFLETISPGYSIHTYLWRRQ
# Assay: Glucocerebrosidase (Gcase) activation assay, 4-methylumbelliferyl-beta-D-glucopyranoside substrate, fluorescence
# Assay type: biochemical
# Conditions: 0.25 h, pH 4.7, test compound at 0.1 μM, 10 nM GCase, 100 nM saposin C, read-out: Percent Gcase Activation 0.1 μM Test Compound
# Experimental: The ability of exemplary compounds to activate glucocerebrosidase (Gcase) was measured.
# A 484 μL aliquot of a 1.0 mg/mL solution of phosphatidylserine (PS) (Sigma P7769) in chloroform was evaporated under a stream of nitrogen for 1 hour. The lipid film was dissolved over 4 minutes of vigorous vortexing in 40 mL of 176 mM K2HPO4/50 mM citric acid (pH 4.7) containing 7.5 μL of triton X-100, resulting in a mixed micellar preparation with a composition of 0.32 mM triton and 0.37 mol % PS. 4-Methylumbelliferyl-beta-D-glucopyranoside (ACROS-337025000) was dissolved in the micellar solution to a final concentration of 2 mM for use as the reaction substrate.
# Test compounds were diluted to the desired concentrations with dimethylsulfoxide (DMSO) from 10 mM stocks, and 0.41 μL of the DMSO compound mixture was added to 100 μL of micellar solution containing 10 nM GCase and 100 nM saposin C (Enzo ALX-201-262-C050). Pre-incubation was allowed to occur for 30 minutes at room temperature, after which the reaction was initiated by combining 25 μL of substrate solution with 25 μL of compound/GCase/saposin mixture. The reaction proceeded for 15 minutes at room temperature and was stopped by adding 150 μL of 1M glycine, pH 12.5. The endpoint of the reaction was monitored by measuring fluorescence intensity (excitation: 365 nm; emission: 440 nm) on a SpectraMax i3 instrument (Molecular Devices). Test compounds were screened at 1.0 and 0.1 μM final concentration, and subsequent 8-point dose response curves were obtained using 3-fold dilutions from a maximum final concentration of 5 μM.
# For experiments in which the test compound was used at a concentration of 1.0 μM, the symbol “+” indicates less than 30% Gcase activation; the symbol “++” indicates Gcase activation in the range of 30% up to 60%; and the symbol “+++” indicates Gcase activation greater than 60%. For experiments in which the test compound was used at a concentration of 0.1 μM, the symbol “*” indicates less than 10% Gcase activation; the symbol “**” indicates Gcase activation in the range of 10% up to 20%; and the symbol “***” indicates greater than 20% Gcase activation.
row,SMILES,activation at 0.1 µM
1,Cc1cc(-c2cccc(C(N)=O)c2)nc2c(C(=O)NC(C3CC3)C(F)(F)F)ccn12 (stereo not drawn) [IV-7],> 20%
2,Cc1cc(C)n2c(F)cc(C(=O)N[C@@H](C)C3CC3)c2n1 [IV-17],10 to 20%
3,Cc1cc(C)n2ccc(C(=O)NC(C)(C)c3ccc4c(c3)OCCO4)c2n1 [IV-19],> 20%
4,Cc1cc(C)n2ccc(C(=O)N[C@@H](C)c3ccccc3F)c2n1 [IV-20],> 20%
5,Cc1cc(C)n2ccc(C(=O)N[C@@H](C)c3ccc(F)cc3)c2n1 [IV-21],> 20%
6,Cc1cc(C)n2ccc(C(=O)NC(C)(C)c3ccccc3Cl)c2n1 [IV-22],10 to 20%
7,Cc1cc(C)n2ccc(C(=O)NC(C)c3cccc4ccccc34)c2n1 (stereo not drawn) [IV-23],10 to 20%
8,COc1ccc([C@@H](C)NC(=O)c2ccn3c(C)cc(C)nc23)cc1 [IV-24],< 10%
9,Cc1cc(C)n2ccc(C(=O)N[C@H](C)c3ccc(Cl)cc3)c2n1 [IV-25],> 20%

# More lines, now with the values ahead:
row,activation at 0.1 µM,SMILES
1,10 to 20%,COCc1cc(C)n2ccc(C(=O)N[C@H]3CC[C@H](OCC(C)C)CC3)c2n1 [IV-4]
2,10 to 20%,CCc1cc(C)nc2c(C(=O)N[C@H]3CC[C@H](OC(C)(C)C)CC3)ccn12 [IV-5]
3,10 to 20%,CCc1cc(C)n2ccc(C(=O)N[C@H]3CC[C@H](OC(C)(C)C)CC3)c2n1 [IV-6]
4,10 to 20%,Cc1cc(C(F)F)n2ccc(C(=O)N[C@H]3CC[C@H](OC(C)(C)C)CC3)c2n1 [IV-8]
5,> 20%,Cc1cc(C(F)F)n2ccc(C(=O)N[C@H]3CC[C@H](OCC(C)C)CC3)c2n1 [IV-9]
6,> 20%,Cc1cc(C(F)F)n2ccc(C(=O)N[C@H]3CC[C@H](OCC(C)(C)C)CC3)c2n1 [IV-10]
7,> 20%,CCCO[C@H]1CC[C@H](NC(=O)c2ccn3c(C(F)F)cc(C)nc23)CC1 [IV-11]
8,10 to 20%,CCCO[C@H]1CC[C@H](NC(=O)c2ccn3c(C)cc(C(F)F)nc23)CC1 [IV-12]
9,> 20%,Cc1cc(C(F)F)nc2c(C(=O)N[C@H]3CC[C@H](OCC(C)C)CC3)ccn12 [IV-13]
10,> 20%,Cc1cc(C(F)F)nc2c(C(=O)N[C@H]3CC[C@H](OCC(C)(C)C)CC3)ccn12 [IV-14]
11,10 to 20%,CCCCO[C@H]1CC[C@H](NC(=O)c2ccn3c(C)cc(N4CCOCC4)nc23)CC1 [IV-15]
12,> 20%,Cc1cc(C)n2ccc(C(=O)NC(C3CC3)C(F)(F)F)c2n1 (stereo not drawn) [IV-16]

# Same assay, conditions: 0.25 h, pH 4.7, test compound at 1.0 μM, 10 nM GCase, 100 nM saposin C, read-out: Percent Gcase Activation 1 μM Test Compound
row,SMILES,activation at 1 µM
1,Cc1cc(-c2cccc(C(N)=O)c2)nc2c(C(=O)NC(C3CC3)C(F)(F)F)ccn12 (stereo not drawn) [IV-7],> 60%
2,Cc1cc(C)n2c(F)cc(C(=O)N[C@@H](C)C3CC3)c2n1 [IV-17],> 60%
3,Cc1cc(C)n2ccc(C(=O)NC(C)(C)c3ccc4c(c3)OCCO4)c2n1 [IV-19],> 60%
4,Cc1cc(C)n2ccc(C(=O)N[C@@H](C)c3ccccc3F)c2n1 [IV-20],> 60%
5,Cc1cc(C)n2ccc(C(=O)N[C@@H](C)c3ccc(F)cc3)c2n1 [IV-21],> 60%
6,Cc1cc(C)n2ccc(C(=O)NC(C)(C)c3ccccc3Cl)c2n1 [IV-22],> 60%
7,Cc1cc(C)n2ccc(C(=O)NC(C)c3cccc4ccccc34)c2n1 (stereo not drawn) [IV-23],> 60%
8,COc1ccc([C@@H](C)NC(=O)c2ccn3c(C)cc(C)nc23)cc1 [IV-24],> 60%
9,Cc1cc(C)n2ccc(C(=O)N[C@H](C)c3ccc(Cl)cc3)c2n1 [IV-25],> 60%

# The next lines start with the values.
row,activation at 1 µM,SMILES
1,> 60%,COCc1cc(C)n2ccc(C(=O)N[C@H]3CC[C@H](OCC(C)C)CC3)c2n1 [IV-4]
2,> 60%,CCc1cc(C)nc2c(C(=O)N[C@H]3CC[C@H](OC(C)(C)C)CC3)ccn12 [IV-5]
3,> 60%,CCc1cc(C)n2ccc(C(=O)N[C@H]3CC[C@H](OC(C)(C)C)CC3)c2n1 [IV-6]
4,> 60%,Cc1cc(C(F)F)n2ccc(C(=O)N[C@H]3CC[C@H](OC(C)(C)C)CC3)c2n1 [IV-8]
5,> 60%,Cc1cc(C(F)F)n2ccc(C(=O)N[C@H]3CC[C@H](OCC(C)C)CC3)c2n1 [IV-9]
6,> 60%,Cc1cc(C(F)F)n2ccc(C(=O)N[C@H]3CC[C@H](OCC(C)(C)C)CC3)c2n1 [IV-10]
7,> 60%,CCCO[C@H]1CC[C@H](NC(=O)c2ccn3c(C(F)F)cc(C)nc23)CC1 [IV-11]
8,> 60%,CCCO[C@H]1CC[C@H](NC(=O)c2ccn3c(C)cc(C(F)F)nc23)CC1 [IV-12]
9,> 60%,Cc1cc(C(F)F)nc2c(C(=O)N[C@H]3CC[C@H](OCC(C)C)CC3)ccn12 [IV-13]
10,> 60%,Cc1cc(C(F)F)nc2c(C(=O)N[C@H]3CC[C@H](OCC(C)(C)C)CC3)ccn12 [IV-14]
11,> 60%,CCCCO[C@H]1CC[C@H](NC(=O)c2ccn3c(C)cc(N4CCOCC4)nc23)CC1 [IV-15]
12,> 60%,Cc1cc(C)n2ccc(C(=O)NC(C3CC3)C(F)(F)F)c2n1 (stereo not drawn) [IV-16]
